Source: BindingDB's records for doi:10.1111/cbdd.12686 (Jamia Hamdard, 2016)

Biological target: Xanthine dehydrogenase/oxidase (Bos taurus, UniProt P80457)
Assay: Xanthine Oxidase (XO) Assay
Settings: pH 7.4

Sequence of Xanthine dehydrogenase/oxidase (P80457 whole entry): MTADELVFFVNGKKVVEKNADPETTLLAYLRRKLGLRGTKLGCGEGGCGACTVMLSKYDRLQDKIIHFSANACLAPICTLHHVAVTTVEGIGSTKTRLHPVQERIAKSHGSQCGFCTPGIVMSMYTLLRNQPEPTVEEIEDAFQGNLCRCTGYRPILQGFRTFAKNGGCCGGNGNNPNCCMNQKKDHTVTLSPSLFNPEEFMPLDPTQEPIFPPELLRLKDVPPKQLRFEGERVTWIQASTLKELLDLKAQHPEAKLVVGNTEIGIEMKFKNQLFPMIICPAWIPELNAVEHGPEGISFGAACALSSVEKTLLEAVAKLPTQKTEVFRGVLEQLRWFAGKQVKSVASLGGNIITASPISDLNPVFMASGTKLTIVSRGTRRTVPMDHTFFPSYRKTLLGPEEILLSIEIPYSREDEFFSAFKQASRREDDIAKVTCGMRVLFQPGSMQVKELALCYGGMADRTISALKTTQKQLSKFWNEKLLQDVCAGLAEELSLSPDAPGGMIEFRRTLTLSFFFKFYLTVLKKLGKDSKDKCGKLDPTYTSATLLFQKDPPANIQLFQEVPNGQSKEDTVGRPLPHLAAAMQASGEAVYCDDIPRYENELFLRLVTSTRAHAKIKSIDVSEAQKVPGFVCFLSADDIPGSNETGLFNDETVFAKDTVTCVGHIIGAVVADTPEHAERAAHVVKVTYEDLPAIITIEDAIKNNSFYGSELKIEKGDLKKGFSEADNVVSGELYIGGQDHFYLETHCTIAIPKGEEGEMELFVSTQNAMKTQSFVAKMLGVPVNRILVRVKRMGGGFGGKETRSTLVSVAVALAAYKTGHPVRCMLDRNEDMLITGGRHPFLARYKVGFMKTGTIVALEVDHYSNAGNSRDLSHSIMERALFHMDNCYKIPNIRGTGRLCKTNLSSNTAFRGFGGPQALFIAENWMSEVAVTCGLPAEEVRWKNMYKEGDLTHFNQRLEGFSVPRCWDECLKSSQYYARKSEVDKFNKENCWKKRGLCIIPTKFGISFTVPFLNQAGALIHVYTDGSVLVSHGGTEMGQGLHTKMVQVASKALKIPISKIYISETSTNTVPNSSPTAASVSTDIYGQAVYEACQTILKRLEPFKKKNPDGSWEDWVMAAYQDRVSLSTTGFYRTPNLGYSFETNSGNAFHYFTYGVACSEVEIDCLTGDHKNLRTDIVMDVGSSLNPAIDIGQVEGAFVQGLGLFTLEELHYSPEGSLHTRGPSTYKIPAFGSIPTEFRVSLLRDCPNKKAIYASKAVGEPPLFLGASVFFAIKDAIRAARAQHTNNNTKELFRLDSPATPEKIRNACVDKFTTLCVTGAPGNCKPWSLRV

Compound	IC50
Cc1nc(NCc2ccc(Cl)cc2)sc1C(=O)O [2-{[(4-chlorophenyl)methyl]amino}-4-methyl-1,3-thiazole-5-carboxylic acid (5b)]	> 100 µM
Cc1ccc(CNc2nc(C)c(C(=O)O)s2)cc1 [4-methyl-2-{[(4-methylphenyl)methyl]amino}-1,3-thiazole-5-carboxylic acid (5e)]	> 100 µM
Cc1nc(NCc2ccc(O)c(O)c2)sc1C(=O)O [2-{[(3,4-dihydroxyphenyl)methyl]amino}-4-methyl-1,3-thiazole-5-carboxylic acid (5p)]	60.2 µM
Cc1nc(NCc2ccccc2Br)sc1C(=O)O [2-{[(2-bromophenyl)methyl]amino}-4-methyl-1,3-thiazole-5-carboxylic acid (5i)]	> 100 µM
Cc1nc(NCc2ccccc2)sc1C(=O)O [2-(Benzylamino)-4-methyl-1,3-thiazole-5-carboxylic acid (5a)]	98.1 µM
COc1ccc(CNc2nc(C)c(C(=O)O)s2)cc1 [2-{[(4-methoxyphenyl)methyl]amino}-4-methyl-1,3-thiazole-5-carboxylic acid (5g)]	> 100 µM
Cc1nc(NCc2ccccc2O)sc1C(=O)O [2-{[(2-hydroxyphenyl)methyl]amino}-4-methyl-1,3-thiazole-5-carboxylic acid (5m)]	> 100 µM

Molecules with a lower IC50, results first:

IC50	Compound
43.2 µM	Cc1nc(NCc2ccc(Br)cc2)sc1C(=O)O [2-{[(4-bromophenyl)methyl]amino}-4-methyl-1,3-thiazole-5-carboxylic acid (5d)]
21.5 µM	Cc1nc(NCc2ccc(O)cc2)sc1C(=O)O [2-{[(4-hydroxyphenyl)methyl]amino}-4-methyl-1,3-thiazole-5-carboxylic acid (5f)]
14.7 µM	COc1ccccc1CNc1nc(C)c(C(=O)O)s1 [2-{[(2-methoxyphenyl)methyl]amino}-4-methyl-1,3-thiazole-5-carboxylic acid (5n)]
30.3 µM	Cc1nc(NCc2ccc(F)cc2)sc1C(=O)O [2-{[(4-fluorophenyl)methyl]amino}-4-methyl-1,3-thiazole-5-carboxylic acid (5c)]
9.9 µM	Cc1nc(NCc2ccccc2Cl)sc1C(=O)O [2-{[(2-chlorophenyl)methyl]amino}-4-methyl-1,3-thiazole-5-carboxylic acid (5j)]
3.6 µM	Cc1ccccc1CNc1nc(C)c(C(=O)O)s1 [4-methyl-2-{[(2-methylphenyl)methyl]amino}-1,3-thiazole-5-carboxylic acid (5k)]
8.1 µM	Cc1nc(NCc2ccc(Cl)cc2Cl)sc1C(=O)O [2-{[(2,4-dichlorophenyl)methyl]amino}-4-methyl-1,3-thiazole-5-carboxylic acid (5l)]
